Test results: patent US20260216238A1, “TETRATHIOMOLYBDIC ACID FOR USE IN TREATING COPPER METABOLISM-ASSOCIATED DISEASES OR DISORDERS (WILSON DISEASE)” (Alexion Pharmaceuticals, Inc., priority 2023, published 2026)

Test system: patients with Wilson disease (WD)
Assay: UWDRS Part III total score, functional subscale and individual items (neurological examination)
Format: in vivo, human
Description: The UWDRS scoring system was developed specifically for the motor and movement disorders associated with chronic copper neurotoxicity in WD. Some individual items/subscales of the UWDRS Part III (arising from a chair, gait, handwriting, and speech) in addition to the UWDRS Parts I, II, and III overall, were assessed to further define the range of burdensome signs and symptoms of WD, so as to further understand the assessment of treatment effects on patients with WD. The UWDRS scores for consciousness (Part I) and abnormal neurologic examination findings (Part III) will be determined by a trained neurologist rater who is blinded to study treatment randomization. These scores were used to provide a rigorous dataset for evaluating changes from baseline.
Unified Wilson Disease Rating Scale (Parts I, II, and III): The UWDRS is a clinical rating scale designed to evaluate the neurological manifestations of WD that generally can be divided into 3 movement disorder syndromes: dystonic, ataxic, and Parkinsonian syndrome. The UWDRS comprises 3 parts: UWDRS Part I (level of consciousness, item 1), UWDRS Part II (a patient-reported review of daily activity items [disability], items 2 to 11), and UWDRS Part III (a detailed neurological examination, items 12 to 34).
The UWDRS Part I and Part III were assessed by a neurologist who is blinded to the treatment randomization, while UWDRS Part II may be reported to a non-blinded member of the study team by the patient, family member, or caregiver. The UWDRS has not been formally evaluated in adolescents. However, the components of Part I (level of consciousness), Part II (patient or caregiver-reported disability) and Part III (neurologic examination findings) were not fundamentally different between adults and adolescents. Patients aged 12 years and older were expected to be able to comply with UWDRS assessments.
Pooled results from all such participants will be integrated together into one timeline to allow analyses of changes in UWDRS, long-term copper control, and long-term safety laboratory data.
Endpoints (directly measured non-ceruloplasmin-bound copper [dNCC], UWDRS III (rater blinded) total and individual item scores, Clinical Global Impression-Improvement [CGI-I]) were evaluated at baseline (BL) and Week 48 (W48). Normalization (score decrease to 0), improvement (≥1 point decrease), stability (no change), or worsening (≥1 point increase) of total and individual UWDRS III item scores were evaluated at W48.

[1] = Week 144, Study 301 TTM long term set
[2] = difference of changes Wk 48 - BL

bis-choline tetrathiomolybdate [TTM]
UWDRS Part III-handwriting (0-4) change from baseline, Mean [1]: −0.5 | UWDRS Part III-speech (0-4) change from baseline, LSM [1]: −0.3 | UWDRS Part III-speech (0-4) change from baseline, Mean [1]: −0.2 | UWDRS symptom: Arising from chair (Wk 48): 86 | UWDRS symptom: Arm and hand Dystonia (Wk 48): 67 | UWDRS symptom: Cervical Dystonia (Wk 48): 82 | UWDRS symptom: Chorea (Wk 48): 91 | UWDRS symptom: Facial Expression (Wk 48): 58 | UWDRS symptom: Finger Taps (Wk 48): 59 | UWDRS symptom: Finger to Nose (Wk 48): 76 | UWDRS symptom: Gait (Wk 48): 63 | UWDRS symptom: Handwriting (Wk 48): 71 | UWDRS symptom: Head Tremor (Wk 48): 89 | UWDRS symptom: Involuntary Crying (Wk 48): 99 | UWDRS symptom: Jaw Tremor (Wk 48): 99 | UWDRS symptom: Leg Ability (Wk 48): 66 | UWDRS symptom: Oculomotor (Wk 48): 87 | UWDRS symptom: Postural Arm Tremor (Wk 48): 58 | UWDRS symptom: Postural Leg Tremor (Wk 48): 73 | UWDRS symptom: Posture (Wk 48): 71 | UWDRS symptom: Pyramidal Signs (Wk 48): 87 | UWDRS symptom: RAM of Hands (Wk 48): 62 | UWDRS symptom: Rigidity (Wk 48): 72 | UWDRS symptom: Speech (Wk 48): 51 | UWDRS symptom: Stereotyped Actions (Wk 48): 89 | UWDRS symptom: Tremor at rest (Wk 48): 76 | UWDRS symptom: Wing-beating tremor (Wk 48): 67 | UWDRS symptom: Arising from chair, Change (Wk 48 - BL) (Wk 48 - BL): 1 | UWDRS symptom: Arm and hand Dystonia, Change (Wk 48 - BL) (Wk 48 - BL): 3 | UWDRS symptom: Cervical Dystonia, Change (Wk 48 - BL) (Wk 48 - BL): 8 | UWDRS symptom: Chorea, Change (Wk 48 - BL) (Wk 48 - BL): 1 | UWDRS symptom: Facial Expression, Change (Wk 48 - BL) (Wk 48 - BL): 1 | UWDRS symptom: Finger Taps, Change (Wk 48 - BL) (Wk 48 - BL): 15 | UWDRS symptom: Finger to Nose, Change (Wk 48 - BL) (Wk 48 - BL): 9 | UWDRS symptom: Gait, Change (Wk 48 - BL) (Wk 48 - BL): 4 | UWDRS symptom: Handwriting, Change (Wk 48 - BL) (Wk 48 - BL): 16 | UWDRS symptom: Head Tremor, Change (Wk 48 - BL) (Wk 48 - BL): 5 | UWDRS symptom: Involuntary Crying, Change (Wk 48 - BL) (Wk 48 - BL): 0 | UWDRS symptom: Jaw Tremor, Change (Wk 48 - BL) (Wk 48 - BL): 0 | UWDRS symptom: Leg Ability, Change (Wk 48 - BL) (Wk 48 - BL): 4 | UWDRS symptom: Oculomotor, Change (Wk 48 - BL) (Wk 48 - BL): −2 | UWDRS symptom: Postural Arm Tremor, Change (Wk 48 - BL) (Wk 48 - BL): 9 | UWDRS symptom: Postural Leg Tremor, Change (Wk 48 - BL) (Wk 48 - BL): 5 | UWDRS symptom: Posture, Change (Wk 48 - BL) (Wk 48 - BL): 4 | UWDRS symptom: Pyramidal Signs, Change (Wk 48 - BL) (Wk 48 - BL): −2 | UWDRS symptom: RAM of Hands, Change (Wk 48 - BL) (Wk 48 - BL): 14 | UWDRS symptom: Rigidity, Change (Wk 48 - BL) (Wk 48 - BL): 14 | UWDRS symptom: Speech, Change (Wk 48 - BL) (Wk 48 - BL): 7 | UWDRS symptom: Stereotyped Actions, Change (Wk 48 - BL) (Wk 48 - BL): −4 | UWDRS symptom: Tremor at rest, Change (Wk 48 - BL) (Wk 48 - BL): 1 | UWDRS symptom: Wing-beating tremor, Change (Wk 48 - BL) (Wk 48 - BL): 3 | UWDRS symptom: Arising from chair, Difference (TTM − SoC) [2]: 4 | UWDRS symptom: Arm and hand Dystonia, Difference (TTM − SoC) [2]: 3 | UWDRS symptom: Cervical Dystonia, Difference (TTM − SoC) [2]: 5 | UWDRS symptom: Chorea, Difference (TTM − SoC) [2]: 6 | UWDRS symptom: Facial Expression, Difference (TTM − SoC) [2]: 4 | UWDRS symptom: Finger Taps, Difference (TTM − SoC) [2]: 20 | UWDRS symptom: Finger to Nose, Difference (TTM − SoC) [2]: 6 | UWDRS symptom: Gait, Difference (TTM − SoC) [2]: 2 | UWDRS symptom: Handwriting, Difference (TTM − SoC) [2]: 13 | UWDRS symptom: Head Tremor, Difference (TTM − SoC) [2]: 9 | UWDRS symptom: Involuntary Crying, Difference (TTM − SoC) [2]: 3 | UWDRS symptom: Jaw Tremor, Difference (TTM − SoC) [2]: 0 | UWDRS symptom: Leg Ability, Difference (TTM − SoC) [2]: 11 | UWDRS symptom: Oculomotor, Difference (TTM − SoC) [2]: 9 | UWDRS symptom: Postural Arm Tremor, Difference (TTM − SoC) [2]: 8 | UWDRS symptom: Postural Leg Tremor, Difference (TTM − SoC) [2]: 9 | UWDRS symptom: Posture, Difference (TTM − SoC) [2]: 1 | UWDRS symptom: Pyramidal Signs, Difference (TTM − SoC) [2]: 4 | UWDRS symptom: RAM of Hands, Difference (TTM − SoC) [2]: 31 | UWDRS symptom: Rigidity, Difference (TTM − SoC) [2]: 5 | UWDRS symptom: Speech, Difference (TTM − SoC) [2]: 0 | UWDRS symptom: Stereotyped Actions, Difference (TTM − SoC) [2]: 1 | UWDRS symptom: Tremor at rest, Difference (TTM − SoC) [2]: 4 | UWDRS symptom: Wing-beating tremor, Difference (TTM − SoC) [2]: 9
